Source: patent US10865222B2, “Neisseria gonorrhoeae therapeutic based on CMP-nonulosonate sugars” (priority 2014, dated 2020)
Entries after “also recorded” stand apart in the source; their conditions may differ.

Key:
[1] = test system: N. gonorrhoeae F62 ΔIgtD; format: cell-based; parameters: key to Serum resistance: high: >100% survival in 10% serum; low: >100% survival in 3.3% serum and <10% survival in 10% serum; conditions: for bacterial survival / serum resistance: all serum concentrations tested (10, 6.7, 3.3%), 30 μM; for serum resistance mediated by CMP-Neu5Ac: analogue 20, 2 or 0.2 μg/ml added 15 min after CMP-Neu5Ac 20 μg/ml, grown 2 h; for killing of bacteria made serum resistant by CMP-Neu5Ac: analogue added 120 min after CMP-Neu5Ac, data not shown; for Serum resistance: summary Table 1
Procedure: FIG. 2. […] N. gonorrhoeae F62 ΔIgtD was grown in media alone (no CMP-sialic acid added), or media that contained 20 μg/ml (˜30 μM) of each of the indicated CMP-nonulosonates. Resistance of bacteria to complement-dependent killing in the presence of 3.3%, 6.7% or 10% normal human serum (NHS) was measured in serum bactericidal assays.
FIG. 5. […] N. gonorrhoeae F62 ΔIgtD was suspended in media containing 20 μg/ml (˜30 μM) CMP-Neu5Ac. Following 15 min of incubation at 37° C., CMP-Neu5Ac9Az or CMP-Leg5Ac7Ac (at concentrations of 20, 2 or 0.2 μg/ml final) were added and bacteria were incubated for 2 h. Serum bactericidal assays were then performed using 3.3% (solid black bars) or 10% (hatched bars) NHS. Controls included bacteria in media that lacked any CMP-nonulosonate, or bacteria that were incubated in CMP-Neu5Ac only. Y-axis, % survival.
We next determined the effects of incorporation of the CMP salts of five structural analogues of Neu5Ac (Neu5Gc, Neu5Ac9Ac, Neu5Ac9Az, Neu5Gc8Me and Leg5Ac7Ac) on the ability of N. gonorrhoeae F62 ΔIgtD to resist complement-dependent killing by normal human serum at concentrations of 10, 6.7 or 3.3%. Bacteria were grown either in media alone, or media supplemented with 30 μM (˜20 μg/ml) of each of the CMP-nonulosonates.
The ability of two of the CMP-nonulosonates, CMP-Neu5Ac9Az and CMP-Leg5Ac7Ac, to counter the ability of CMP-Neu5Ac to enhance serum resistance of N. gonorrrhoeae was then examined. The analogues were added at concentrations of 20, 2 or 0.2 μg/ml to growth media 15 min after the addition of CMP-Neu5Ac (20 μg/ml) to F62 ΔIgtD.
Serum bactericidal assays were performed as described previously (11). Bacteria harvested from an overnight culture on chocolate agar plates were grown in liquid media containing the specified concentration of CMP-nonulosonate as specified for each experiment. Approximately 2000 CFU of F62 ΔIgtD were incubated with NHS (concentration specified for each experiment). The final reaction volumes were maintained at 150 μl. […]

[2] = test system: Ng 398078 (expresses P^K-like structure on HepI); experiment: Complement resistance of Ng 398078 (serum bactericidal assay); format: cell-based, N. gonorrhoeae; conditions: 10% normal human serum
Procedure: CMP-Leg5Ac7Ac and CMP-Neu5Ac9Az also counteracted CMP-Neu5Ac-mediated serum resistance of a P^K LOS expressing isolate called 398078 (Table 4).
Serum bactericidal assays were performed as described previously (11). Bacteria harvested from an overnight culture on chocolate agar plates were grown in liquid media containing the specified concentration of CMP-nonulosonate as specified for each experiment. Approximately 2000 CFU of F62 ΔIgtD were incubated with NHS (concentration specified for each experiment). The final reaction volumes were maintained at 150 μl. Aliquots of 25 μl of reaction mixtures were plated onto chocolate agar in duplicate at the beginning of the assay (t0) and again after incubation at 37° C. for 30 min (t30). Survival was calculated as the number of viable colonies at t30 relative to t0.

[3] = CMP-NulO 20 μg/ml added to media 15 min after CMP-Neu5Ac 20 μg/ml

5,7-diacetamido-3,5,7,9-tetradeoxy-D-glycero-D-galacto-nonulosonic acid [CMP-Leg5Ac7Ac]
bacterial survival / serum resistance [1]: did not increase bacterial survival
serum resistance mediated by CMP-Neu5Ac [1]: blocked serum resistance; also recorded: completely blocked
killing of bacteria made serum resistant by CMP-Neu5Ac [1]: did not induce any killing
Serum resistance [1]: none
% survival [mean (range)] [2, 3]: 0 (0) %
% survival [mean (range)] ([2]; CMP-NulO alone at 20 μg/ml): 0 (0) %

CC(=O)N[C@H]1[C@H]([C@H](O)[C@H](O)COC(C)=O)OC(OP(=O)(O)OC[C@H]2O[C@@H](n3ccc(N)nc3=O)[C@H](O)[C@@H]2O)(C(=O)O)C[C@@H]1O (stereo partly drawn) [CMP-Neu5Ac9Ac, CMP-5-acetamido-9-O-acetyl-3,5-dideoxy-D-glycero-D-galacto-nonulosonic acid]
Serum resistance [1]: low^C

CC(=O)N[C@H]1[C@H]([C@H](O)[C@H](O)CN=[N+]=[N-])OC(OP(=O)(O)OC[C@H]2O[C@@H](n3ccc(N)nc3=O)[C@H](O)[C@@H]2O)(C(=O)O)C[C@@H]1O (stereo partly drawn) [CMP-Neu5Ac9Az, CMP-5-acetamido-9-azido-3,5,9-trideoxy-D-glycero-D-galacto-nonulosonic acid]
bacterial survival / serum resistance [1]: did not increase bacterial survival
serum resistance mediated by CMP-Neu5Ac [1]: blocked serum resistance; also recorded: completely blocked
killing of bacteria made serum resistant by CMP-Neu5Ac [1]: did not induce any killing
Serum resistance [1]: none
% survival [mean (range)] [2, 3]: 7.5 (5.2) %
% survival [mean (range)] ([2]; CMP-NulO alone at 20 μg/ml): 7.1 (2.3) %

CC(=O)NC1C(O)CC(OP(=O)(O)OCC2OC(n3ccc(N)nc3=O)C(O)C2O)(C(=O)O)OC1C(O)C(O)CO [CMP-Neu5Ac, CMP-5-acetamido-3,5-dideoxy-D-glycero-D-galacto-nonulosonic acid, reference compound]
bacterial survival ([1]; CMP-Neu5Ac 20 μg/ml, 32 min exposure, 10% NHS): ~42%
resistance to 10% serum ([1]; CMP-nonulosonate 3 μM (~2 μg/ml), 10% serum): conferred resistance
Serum resistance [1]: high^B (>100% survival in 10% serum)
% survival [mean (range)] ([2]; CMP-NulO alone at 20 μg/ml): 57.5 (1.6) %

COC(CO)C(O)C1OC(OP(=O)(O)OCC2OC(n3ccc(N)nc3=O)C(O)C2O)(C(=O)O)CC(O)C1NC(=O)CO [CMP-Neu5Gc8Me, CMP-5-hydroxyacetamido-8-O-methyl-3,5-dideoxy-D-glycero-D-galacto-nonulosonic acid]
Serum resistance [1]: low
